# US5935636A, “Trehalose and its production and use” (Kabushiki Kaisha Hayashibara Seibutsu Kagaku Kenkyujo, priority 1994, dated 1999)
# Counter-ions that a name gives are not always drawn. Like-named read-outs stand apart in the source and are kept apart here.
# How the values were obtained:
# [1] = system: maltose/trehalose conversion enzyme derived from Pseudomonas putida H262; type: biochemical
# Description: (§1) Maltose/trehalose conversion enzymes are assayed as follows: 1 ml of 20 w/v % maltose as substrate in 10 mM phosphate buffer (pH7.0) is added with 1 ml enzyme liquid, allowed to react at 25° C., 35° C. or 60° C. for 60 minutes and heated at 100° C. for 10 minutes to suspend the reaction. The reaction liquid is accurately diluted by 11-times in 50 mM phosphate buffer (pH7.5) and 0.4 ml of the diluted liquid is added with 0.1 ml of 1 unit/ml trehalase solution, incubated at 45° C. for 120 minutes and determined for glucose level by the glucose oxidase method. […] The amount of the trehalose formed by maltose/trehalose conversion enzyme is estimated with the increased amount of glucose as determined by the above measurement and one unit of the enzyme is defined as the amount of enzyme that forms one micromole of trehalose for one minute.
# (§2) Effects of temperature and pH on the activity of the enzyme were investigated in accordance with the assay method. […] The thermal stability of the enzyme was determined by incubating the enzyme in 50 mM phosphate buffer (pH7.0) at different temperatures for 60 minutes, cooling with water and assaying the residual activities. While the pH stability was determined by incubating at 35° C. for 60 minutes in 50 mM phosphate buffer with different pH levels, adjusting to pH7.0 and assaying the residual enzyme activities.
# [2] = target: T1, maltose/trehalose conversion enzyme derived from Pimelobacter species R48 (Pimelobacter sp., UniProt P72235); assay: Inhibition of enzymatic activity; type: biochemical
# T1 construct: The culture obtained in Experiment 1 was centrifugally separated to collect the cells; made in house; host or cells: native producer Pimelobacter species R48 (FERM BP-4315), purified from disrupted cells
# T1 sequence (P72235 1-573): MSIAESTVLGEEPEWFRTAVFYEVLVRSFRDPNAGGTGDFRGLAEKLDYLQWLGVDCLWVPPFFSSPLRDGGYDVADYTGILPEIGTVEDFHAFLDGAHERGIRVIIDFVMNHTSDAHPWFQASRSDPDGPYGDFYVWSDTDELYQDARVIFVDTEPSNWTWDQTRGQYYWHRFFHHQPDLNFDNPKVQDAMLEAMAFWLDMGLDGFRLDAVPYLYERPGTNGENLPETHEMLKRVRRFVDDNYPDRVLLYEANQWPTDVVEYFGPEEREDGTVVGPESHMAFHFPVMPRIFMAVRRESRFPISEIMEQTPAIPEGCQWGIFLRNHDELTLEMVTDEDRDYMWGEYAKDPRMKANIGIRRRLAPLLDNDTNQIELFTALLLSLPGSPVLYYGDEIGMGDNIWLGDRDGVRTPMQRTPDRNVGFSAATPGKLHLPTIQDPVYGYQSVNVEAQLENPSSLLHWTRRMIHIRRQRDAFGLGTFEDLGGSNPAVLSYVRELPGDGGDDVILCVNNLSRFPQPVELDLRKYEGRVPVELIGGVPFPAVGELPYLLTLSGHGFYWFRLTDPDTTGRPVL
# Description: as §1
# as §2, with “20°” for “35°”
# [3] = target: T2, maltose/trehalose conversion enzyme derived from Thermus aquaticus (ATCC33923) (Thermus thermophilus, UniProt O06458); assay: Inhibition of enzymatic activity; type: biochemical
# T2 construct: The culture obtained in Experiment 15 was centrifugally separated to collect the cells; made in house; host or cells: native producer Thermus aquaticus (ATCC33923), purified from disrupted cells
# T2 sequence (O06458 1-963): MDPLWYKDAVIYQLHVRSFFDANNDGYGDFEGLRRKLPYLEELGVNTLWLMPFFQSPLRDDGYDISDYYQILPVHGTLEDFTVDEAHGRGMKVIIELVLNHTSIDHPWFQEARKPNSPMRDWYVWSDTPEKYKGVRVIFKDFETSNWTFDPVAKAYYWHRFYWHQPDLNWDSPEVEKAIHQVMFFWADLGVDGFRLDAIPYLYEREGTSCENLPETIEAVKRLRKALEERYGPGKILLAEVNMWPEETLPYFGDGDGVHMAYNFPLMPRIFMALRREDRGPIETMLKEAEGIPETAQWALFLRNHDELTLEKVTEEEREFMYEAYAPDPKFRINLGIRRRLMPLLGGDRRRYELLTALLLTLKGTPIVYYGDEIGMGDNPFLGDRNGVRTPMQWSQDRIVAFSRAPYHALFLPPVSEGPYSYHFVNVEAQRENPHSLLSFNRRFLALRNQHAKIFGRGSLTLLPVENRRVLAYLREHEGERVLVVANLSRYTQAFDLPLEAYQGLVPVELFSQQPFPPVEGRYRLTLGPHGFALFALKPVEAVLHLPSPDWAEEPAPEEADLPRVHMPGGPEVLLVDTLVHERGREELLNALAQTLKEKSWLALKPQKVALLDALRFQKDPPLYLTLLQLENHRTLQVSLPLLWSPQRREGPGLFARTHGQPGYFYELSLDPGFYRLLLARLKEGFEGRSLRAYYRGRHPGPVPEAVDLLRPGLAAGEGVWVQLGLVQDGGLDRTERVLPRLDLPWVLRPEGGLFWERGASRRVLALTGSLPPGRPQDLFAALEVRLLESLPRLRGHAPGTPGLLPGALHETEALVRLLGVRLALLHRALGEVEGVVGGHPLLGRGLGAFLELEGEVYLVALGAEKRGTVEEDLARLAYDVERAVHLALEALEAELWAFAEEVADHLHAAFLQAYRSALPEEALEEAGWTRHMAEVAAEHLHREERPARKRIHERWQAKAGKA
# Description: as §1
# as §2, with “60°” for “35°”
# [4] = system: purified enzyme from Pseudomonas putida H262; assay: Action on a variety of saccharides (substrate feasibility, TLC); type: biochemical; conditions: method of Experiment 4, reaction temperature 35° C.
# Description: (§3) A variety of saccharides were tested for feasibility as substrate.
# (§4) Each solution was added with 2 units/g substrate solid of a purified maltose/trehalose conversion enzyme obtained by the method in Experiment 2, adjusted to give respective substrate concentrations of 5 w/v % and reacted at 20° C. and pH7.0 for 24 hours. Before and after the reaction the solutions were subjected to thin-layer chromatography (TLC) on "[…] 60", an aluminum plate, width and length of 20 cm respectively, commercialized by Merck & Co., Inc., New Jersey, USA, to check the enzymatic action on respective saccharides. TLC was developed at ambient temperature with a mixture solvent of 1-butanol, pyridine and water (6:4:1 by volume). Coloration was carried out by first spraying 20% sulfuric acid/methanol solution, then heating at 110° C. for 10 minutes.
# A variety of saccharides were tested for feasibility as substrate for the purified enzyme from Pseudomonas putida H262 obtained in Experiment 10 in accordance with the method in Experiment 4 except that the reaction temperature was set to 35° C. As the result, like the enzyme from Pimelobacter species R48, the enzyme from Pseudomonas putida H262 acted on only maltose and trehalose to convert maltose to trehalose as well as to convert trehalose to maltose.
# [5] = system: partially-purified enzymes derived from conventional microorganisms of the genus Thermus; assay: Action on a variety of saccharides, partially-purified enzymes; type: biochemical; conditions: method of Experiment 18
# Description: Among conventional microorganisms, the specified microorganisms which had been confirmed for production of the maltose/trehalose conversion enzyme according to the present invention were cultivated in flasks for 48 hours in accordance with the method in Experiment 15. Respective cultures were checked for enzymatic activity and then subjected to cell disrupter in accordance with the method in Experiment 16 and the supernatants were dialyzed to obtain partially-purified enzymes which were then investigated for properties in accordance with the method in Experiment 17.
# [6] = target: T3, purified maltose/trehalose conversion enzyme from Pimelobacter species R48 (Pimelobacter sp., UniProt P72235); assay: Action on a variety of saccharides (substrate feasibility, TLC); type: biochemical; conditions: 20° C., pH7.0, 24 hours
# T3 construct: The culture obtained in Experiment 1 was centrifugally separated to collect the cells; made in house; host or cells: native producer Pimelobacter species R48 (FERM BP-4315), purified from disrupted cells
# T3 sequence (P72235 1-573): T1 sequence (P72235 1-573)
# Description: as §3, §4
# mice = assay: Acute toxicity test; type: in vivo; conditions: orally administered in mice, possible highest dose
# Description: An acute toxicity test was conducted on a high-purity trehalose prepared in Example A-6, where it was orally administered in mice. As the result, trehalose was a low toxic substance causing no death even in the possible highest dose. Thus its LD50 would be briefly 50 g/kg or higher.
# [7] = Physicochemical properties of trehalose preparations: solubility; conditions: in 25° C. water
# Description: A high-purity trehalose prepared by the method in Experiment 8 was tested for physicochemical properties. […] These physical values were in good agreement with those of a simultaneously tested commercially-available crystalline trehalose hydrate, a product of Wako Pure Chemical Industries, Ltd., Osaka, Japan.
# [8] = Test for assimilation in vivo (blood sugar and insulin levels); conditions: healthy three men
# Description: In accordance with the method reported by Atsuji et al., Rinsho Eiyo (Clinical Nutrition), Vol.41, No.2, pp.200-208 (1972), 30g of the high-purity trehalose, purity of 99.8%, prepared in Experiment 8 was prepared into 20 w/v % aqueous solution and orally administered to healthy three men, age of 26, 27 and 30 years, after which their bloods were periodically sampled and measured for blood sugar and insulin levels. Glucose was used as control. […] Thus the trehalose and saccharide containing the same are suitable as saccharide source for energy supplement.
# [9] = 30 g as 20 w/v % aqueous solution, oral
Compound,Inhibition of activity ([1]; 1 mM),Inhibition of activity ([2]; 1 mM),Inhibition of activity ([3]; 1 mM),action of the enzyme on saccharides (in words) [4],action of the enzymes on saccharides (in words) [5],action of the enzyme on saccharides (in words) [6],also measured
[Cu+2] [Cu^2+],Inhibited,Inhibited,Inhibited,,,,"Inhibition of activity ([3]; 1 mM, listed as C^2+): inhibited"
[Hg+2] [Hg^2+],Inhibited,Inhibited,Inhibited,,,,
OC[C@H]1O[C@H](O[C@H]2[C@H](O)[C@@H](O)[C@H](O)O[C@@H]2CO)[C@H](O)[C@@H](O)[C@@H]1O [Maltose],,,,acted on,acted on,acted on,
"NC(CO)(CO)CO [Tris-HCl buffer, Tris-HCl]",,,,,,,Inhibition of activity [1]: Inhibited; Inhibition of activity [2]: Inhibited; Inhibition of activity [3]: Inhibited
"OC[C@H]1O[C@H](O[C@H]2O[C@H](CO)[C@@H](O)[C@H](O)[C@H]2O)[C@H](O)[C@@H](O)[C@@H]1O [trehalose, alpha,alpha-trehalose]",,,,acted on,acted on,acted on,"death in acute toxicity test (mice): no death; solubility as anhydrous substance [7]: 77.0 g; time at which blood sugar level reached maximum after administration [8, 9]: 0.5 to 1 h; time at which insulin level reached maximum after administration [8, 9]: 0.5 to 1 h; digestion, absorption and utilization (in words) ([8]; 30 g oral, glucose as control): readily digested and absorbed and then metabolized and utilized as energy source"
